Data: patent US10898481B2 (priority 2018, dated 2021)

Assays:
[1] = biological target: hADORA1/CHO (hA1 expressing) cells (Homo sapiens (Human), UniProt P30542); experiment: cell-based; details: FLIPR inhibition, 10 μM adenosine, read-out: cAMP & FLIPR IC50 (nM) hA1
hA2a/CHO = hA2a/CHO (Homo sapiens (Human), UniProt P29274); experiment: cAMP inhibition assay in hA2a/CHO cells, 10 μM adenosine; assay type: cell-based; details: read-out: cAMP & FLIPR IC50 (nM) hA2a;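 note: compounds added to cells 30 min ahead of adenosine, then a further 30 min at 37 °C with adenosine before cAMP detection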
Sequence of hA2a/CHO (P29274 whole entry): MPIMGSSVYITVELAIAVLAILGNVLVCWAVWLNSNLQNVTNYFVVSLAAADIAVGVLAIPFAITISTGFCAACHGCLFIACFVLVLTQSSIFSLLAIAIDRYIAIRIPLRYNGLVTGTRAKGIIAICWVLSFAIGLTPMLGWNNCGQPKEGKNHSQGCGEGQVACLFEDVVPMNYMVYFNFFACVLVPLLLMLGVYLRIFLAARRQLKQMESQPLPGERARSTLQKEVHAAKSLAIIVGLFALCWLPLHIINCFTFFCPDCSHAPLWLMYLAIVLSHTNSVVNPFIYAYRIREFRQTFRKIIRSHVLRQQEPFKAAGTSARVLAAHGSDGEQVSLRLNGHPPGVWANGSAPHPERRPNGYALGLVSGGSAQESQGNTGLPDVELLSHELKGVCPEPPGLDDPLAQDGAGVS
Method: hA2a/CHO, hA2b/CHO, hA3/CHO and mA2a/CHO (Genscript) were plated at 5×10^3 cells/well into 384-well polystyrene plates at the day of experiment. Compounds were pre-incubated with cells for 30 min at 37° C., 5% CO2. Then 10 μM adenosine was added to the cells and incubated for 30 min at 37° C., 5% CO2. Detection reagent (CISBIO) was added and the plates were incubated for 60 min at room temperature. The signal was captured by Envision.

Sequence of hADORA1/CHO (hA1 expressing) cells (P30542 whole entry): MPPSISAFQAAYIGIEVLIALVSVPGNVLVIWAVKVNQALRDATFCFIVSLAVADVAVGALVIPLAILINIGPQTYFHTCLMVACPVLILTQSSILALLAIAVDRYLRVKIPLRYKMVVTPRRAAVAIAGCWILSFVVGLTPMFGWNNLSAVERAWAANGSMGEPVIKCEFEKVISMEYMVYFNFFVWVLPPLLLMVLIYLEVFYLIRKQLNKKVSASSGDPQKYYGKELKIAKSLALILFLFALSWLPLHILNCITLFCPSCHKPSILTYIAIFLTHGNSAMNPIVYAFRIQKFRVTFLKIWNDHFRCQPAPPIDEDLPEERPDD

**Q.** What does the source list for Cc1cnc2ccc(-c3nc(C(=O)NCCN(C)C4CCOC4)c(N)nc3-c3ncco3)cn12 (racemic) [Cmpd. 233, rac-3-amino-N-(2-(methyl(tetrahydrofuran-3-yl)amino)ethyl)-6-(3-methylimidazo[1,2-a]pyridin-6-yl)-5-(oxazol-2-yl)pyrazine-2-carboxamide]?
**A.** IC50 [1]: 1910 nM; IC50 (hA2a/CHO): 38 nM

**Q.** For Cc1cnc2ccc(-c3nc(C(=O)NCc4cccc(N5CCC(N(C)C)C5)n4)c(N)nc3-c3ncco3)cn12 (single isomer, unassigned) [Cmpd. 232, 3-amino-N-((6-(3-(dimethylamino)pyrrolidin-1-yl)pyridin-2-yl)methyl)-6-(3-methylimidazo[1,2-a]pyridin-6-yl)-5-(oxazol-2-yl)pyrazine-2-carboxamide], which IC50 [1] is on record?
**A.** Its IC50 is 1500 nM.

**Q.** What about the IC50 (hA2a/CHO) of the same compound?
**A.** Its IC50 is 0.5 nM.

**Q.** Which IC50 [1] does the source give for Cc1cnc2ccc(-c3nc(C(=O)NCc4cccc(N5CCC(N(C)C)C5)n4)c(N)nc3-c3ncco3)cn12 (single isomer, unassigned) [Cmpd. 235, 3-amino-N-((6-(3-(dimethylamino)pyrrolidin-1-yl)pyridin-2-yl)methyl)-6-(3-methylimidazo[1,2-a]pyridin-6-yl)-5-(oxazol-2-yl)pyrazine-2-carboxamide] here?
**A.** The IC50 was 5180 nM.

**Q.** What about the IC50 (hA2a/CHO) of the same compound?
**A.** The IC50 was 0.8 nM.

**Q.** With Cc1cnc2ccc(-c3nc(C(=O)NCC(C4CC4)N(C)C)c(N)nc3-c3ncco3)cn12 (single isomer, unassigned; isomer 1) [Example 253, 3-amino-N-(2-cyclopropyl-2-(dimethylamino)ethyl)-6-(3-methylimidazo[1,2-a]pyridin-6-yl)-5-(oxazol-2-yl) pyrazine-2-carboxamide (isomer 1)] as the compound, how does the IC50 [1] read?
**A.** Its IC50 is 8170 nM.

**Q.** And the IC50 (hA2a/CHO)?
**A.** Its IC50 is 12 nM.

**Q.** For Cc1cnc2ccc(-c3nc(C(=O)NCC4CC(C)(C)O4)c(N)nc3-c3ncco3)cn12 (single isomer, unassigned; isomer 1) [Example 260, 3-amino-N-((4,4-dimethyloxetan-2-yl)methyl)-6-(3-methylimidazo[1,2-a]pyridin-6-yl)-5-(oxazol-2-yl)pyrazine-2-carboxamide (isomer 1)], which IC50 [1] is on record?
**A.** The IC50 was 30 nM.

**Q.** What about the IC50 (hA2a/CHO) of the same compound?
**A.** The IC50 was 5.9 nM.

**Q.** With Cc1cnc2ccc(-c3nc(C(=O)NCC4CCCN(C)C4=O)c(N)nc3-c3ncco3)cn12 (single isomer, unassigned; isomer 1) [Example 263, 3-amino-N-((1-methyl-2-oxopiperidin-3-yl)methyl)-6-(3-methylimidazo[1,2-a]pyridin-6-yl)-5-(oxazol-2-yl) pyrazine-2-carboxamide (isomer 1)] as the compound, how does the IC50 [1] read?
**A.** Its IC50 is 103 nM.

**Q.** And the IC50 (hA2a/CHO)?
**A.** Its IC50 is 0.4 nM.

**Q.** Cc1cnc2ccc(-c3nc(C(=O)NC(C)C4CCCO4)c(N)nc3-c3ncco3)cn12 (single isomer, unassigned; isomer 1) [Example 266, 3-amino-6-(3-methylimidazo[1,2-a]pyridin-6-yl)-5-(oxazol-2-yl)-N-(1-(tetrahydrofuran-2-yl)ethyl)pyrazine-2-carboxamide (isomer 1)] was tested. Which IC50 [1] did it give?
**A.** Its IC50 is over 10000 nM.

**Q.** And the IC50 (hA2a/CHO)?
**A.** The IC50 was 7.6 nM.

**Q.** For Cc1cnc2ccc(-c3nc(C(=O)NCC4CCN(C)C4=O)c(N)nc3-c3ccc(F)cc3)cn12 (single isomer, unassigned; isomer 1) [Example 267, 3-amino-5-(4-fluorophenyl)-N-((1-methyl-2-oxopyrrolidin-3-yl)methyl)-6-(3-methylimidazo[1,2-a]pyridin-6-yl) pyrazine-2-carboxamide (isomer 1)], which IC50 [1] is on record?
**A.** The IC50 was 2.8 nM.

**Q.** And the IC50 (hA2a/CHO)?
**A.** Its IC50 is 0.9 nM.

**Q.** Which IC50 [1] does the source give for NCc1cnc2ccc(-c3nc(C(=O)NCc4ncccc4F)c(N)nc3-c3ncco3)cn12 [Cmpd. 198, 3-amino-6-(3-(aminomethyl)imidazo[1,2-a]pyridin-6-yl)-N-((3-fluoropyridin-2-yl)methyl)-5-(oxazol-2-yl)pyrazine-2-carboxamide] here?
**A.** The IC50 was over 10000 nM.

**Q.** Cc1cnc2ccc(-c3nc(C(=O)NCc4ncccc4F)c(N)nc3N3CCOCC3)cn12 [Cmpd. 223, 3-amino-N-[(3-fluoropyridin-2-yl)methyl]-6-[3-methylimidazo[1,2-a]pyridin-6-yl]-5-(morpholin-4-yl)pyrazine-2-carboxamide] was tested. Which IC50 [1] did it give?
**A.** Its IC50 is over 10000 nM.

**Q.** How did the IC50 (hA2a/CHO) turn out when Cc1cnc2ccc(-c3nc(CNC(=O)[C@H]4CCCN4C)c(N)nc3-c3cc(F)cc(F)c3)cn12 [Example 291, (2R)—N-[[3-amino-5-(3,5-difluorophenyl)-6-[3-methylimidazo[1,2-a]pyridin-6-yl]pyrazin-2-yl]methyl]-1-methylpyrrolidine-2-carboxamide] was run?
**A.** The IC50 was 1.1 nM.

**Q.** For Cc1cnc2ccc(-c3nc(C(=O)N[C@@H](C)Cn4ccnn4)c(N)nc3-c3ncco3)cn12 [Example 296, (S)-N-(1-(lH-1,2,3-triazol-1-yl)propan-2-yl)-3-amino-6-(3-methylimidazo[1,2-a]pyridin-6-yl)-5-(oxazol-2-yl) pyrazine-2-carboxamide], which IC50 (hA2a/CHO) is on record?
**A.** Its IC50 is 0.9 nM.

**Q.** For Cc1cnc2ccc(-c3nc(C(=O)N[C@@H](C)Cn4nccn4)c(N)nc3-c3ncco3)cn12 [Example 297, 3-amino-6-[3-methylimidazo[1,2-a]pyridin-6-yl]-5-(1,3-oxazol-2-yl)-N-[(2S)-1-(2H-1,2,3-triazol-2-yl)propan-2-yl]pyrazine-2-carboxamide], which IC50 (hA2a/CHO) is on record?
**A.** The IC50 was 0.2 nM.

**Q.** With Cc1cnc2ccc(-c3nc(C(=O)N[C@H](C)Cn4nccn4)c(N)nc3-c3ncco3)cn12 [Example 298, 3-amino-6-[3-methylimidazo[1,2-a]pyridin-6-yl]-5-(1,3-oxazol-2-yl)-N-[(2R)-1-(2H-1,2,3-triazol-2-yl)propan-2-yl]pyrazine-2-carboxamide] as the compound, how does the IC50 (hA2a/CHO) read?
**A.** Its IC50 is 47 nM.

**Q.** With COCCCNC(=O)c1nc(-c2ccc3ncc(C)n3c2)c(-n2nccn2)nc1N [Example 299, 3-amino-N-(3-methoxypropyl)-6-(3-methylimidazo[1,2-a]pyridin-6-yl)-5-(2H-1,2,3-triazol-2-yl)pyrazine-2-carboxamide] as the compound, how does the IC50 (hA2a/CHO) read?
**A.** The IC50 was 4.9 nM.

**Q.** How did the IC50 (hA2a/CHO) turn out when Cc1cnc2ccc(-c3nc(C(=O)NCc4ncccc4OCCO)c(N)nc3-c3ncco3)cn12 [Example 300, 3-amino-N-((3-(2-hydroxyethoxy)pyridin-2-yl)methyl)-6-(3-methylimidazo [1,2-a]pyridin-6-yl)-5-(oxazol-2-yl) pyrazine-2-carboxamide] was run?
**A.** Its IC50 is 0.8 nM.

**Q.** Which IC50 (hA2a/CHO) does the source give for CNCCOc1cccnc1CNC(=O)c1nc(-c2ccc3ncc(C)n3c2)c(-c2ncco2)nc1N [Example 301, 3-amino-N-([3-[2-(methylamino)ethoxy]pyridin-2-yl]methyl)-6-[3-methylimidazo[1,2-a]pyridin-6-yl]-5-(1,3-oxazol-2-yl)pyrazine-2-carboxamide] here?
**A.** The IC50 was 3 nM.

**Q.** Which IC50 (hA2a/CHO) does the source give for Cc1cnc2ccc(-c3nc(C(=O)NCc4cccc(N5CCC(N(C)C)CC5)n4)c(N)nc3-c3ncco3)cn12 [Example 302, 3-amino-N-((6-(4-(dimethylamino)piperidin-1-yl)pyridin-2-yl)methyl)-6-(3-methylimidazo[1,2-a]pyridin-6-yl)-5-(oxazol-2-yl)pyrazine-2-carboxamide] here?
**A.** The IC50 was 2.4 nM.

**Q.** For CNC1CN(c2cccc(CNC(=O)c3nc(-c4ccc5ncc(C)n5c4)c(-c4ncco4)nc3N)n2)C1 [Example 303, 3-amino-N-((6-(3-(methylamino)azetidin-1-yl)pyridin-2-yl)methyl)-6-(3-methylimidazo[1,2-a]pyridin-6-yl)-5-(oxazol-2-yl)pyrazine-2-carboxamide], which IC50 (hA2a/CHO) is on record?
**A.** Its IC50 is 0.4 nM.
